Consider eleven compounds from patent US9776995B2, “Bicyclic sulfonamide compounds as sodium channel inhibitors” (AMGEN INC., priority 2013, dated 2017).

Molecules are shown by their SMILES. Where two headings read alike, the source gives them in different places. Bounds are passed on as bounds.

One data set deals with Nav 1.5 (Homo sapiens (Human), UniProt Q14524). The data set can be described thus: in-vitro Nav 1.5 PX data. To be noted: read-out: Nav 1.5 PX IC50.
A further data set concerns the target Nav 1.7 (Homo sapiens (Human), UniProt Q15858). The data set can be described thus: in-vitro Nav 1.7 PX data. Type of data set: cell-based.

Nav 1.5, sequence (Q14524 whole entry): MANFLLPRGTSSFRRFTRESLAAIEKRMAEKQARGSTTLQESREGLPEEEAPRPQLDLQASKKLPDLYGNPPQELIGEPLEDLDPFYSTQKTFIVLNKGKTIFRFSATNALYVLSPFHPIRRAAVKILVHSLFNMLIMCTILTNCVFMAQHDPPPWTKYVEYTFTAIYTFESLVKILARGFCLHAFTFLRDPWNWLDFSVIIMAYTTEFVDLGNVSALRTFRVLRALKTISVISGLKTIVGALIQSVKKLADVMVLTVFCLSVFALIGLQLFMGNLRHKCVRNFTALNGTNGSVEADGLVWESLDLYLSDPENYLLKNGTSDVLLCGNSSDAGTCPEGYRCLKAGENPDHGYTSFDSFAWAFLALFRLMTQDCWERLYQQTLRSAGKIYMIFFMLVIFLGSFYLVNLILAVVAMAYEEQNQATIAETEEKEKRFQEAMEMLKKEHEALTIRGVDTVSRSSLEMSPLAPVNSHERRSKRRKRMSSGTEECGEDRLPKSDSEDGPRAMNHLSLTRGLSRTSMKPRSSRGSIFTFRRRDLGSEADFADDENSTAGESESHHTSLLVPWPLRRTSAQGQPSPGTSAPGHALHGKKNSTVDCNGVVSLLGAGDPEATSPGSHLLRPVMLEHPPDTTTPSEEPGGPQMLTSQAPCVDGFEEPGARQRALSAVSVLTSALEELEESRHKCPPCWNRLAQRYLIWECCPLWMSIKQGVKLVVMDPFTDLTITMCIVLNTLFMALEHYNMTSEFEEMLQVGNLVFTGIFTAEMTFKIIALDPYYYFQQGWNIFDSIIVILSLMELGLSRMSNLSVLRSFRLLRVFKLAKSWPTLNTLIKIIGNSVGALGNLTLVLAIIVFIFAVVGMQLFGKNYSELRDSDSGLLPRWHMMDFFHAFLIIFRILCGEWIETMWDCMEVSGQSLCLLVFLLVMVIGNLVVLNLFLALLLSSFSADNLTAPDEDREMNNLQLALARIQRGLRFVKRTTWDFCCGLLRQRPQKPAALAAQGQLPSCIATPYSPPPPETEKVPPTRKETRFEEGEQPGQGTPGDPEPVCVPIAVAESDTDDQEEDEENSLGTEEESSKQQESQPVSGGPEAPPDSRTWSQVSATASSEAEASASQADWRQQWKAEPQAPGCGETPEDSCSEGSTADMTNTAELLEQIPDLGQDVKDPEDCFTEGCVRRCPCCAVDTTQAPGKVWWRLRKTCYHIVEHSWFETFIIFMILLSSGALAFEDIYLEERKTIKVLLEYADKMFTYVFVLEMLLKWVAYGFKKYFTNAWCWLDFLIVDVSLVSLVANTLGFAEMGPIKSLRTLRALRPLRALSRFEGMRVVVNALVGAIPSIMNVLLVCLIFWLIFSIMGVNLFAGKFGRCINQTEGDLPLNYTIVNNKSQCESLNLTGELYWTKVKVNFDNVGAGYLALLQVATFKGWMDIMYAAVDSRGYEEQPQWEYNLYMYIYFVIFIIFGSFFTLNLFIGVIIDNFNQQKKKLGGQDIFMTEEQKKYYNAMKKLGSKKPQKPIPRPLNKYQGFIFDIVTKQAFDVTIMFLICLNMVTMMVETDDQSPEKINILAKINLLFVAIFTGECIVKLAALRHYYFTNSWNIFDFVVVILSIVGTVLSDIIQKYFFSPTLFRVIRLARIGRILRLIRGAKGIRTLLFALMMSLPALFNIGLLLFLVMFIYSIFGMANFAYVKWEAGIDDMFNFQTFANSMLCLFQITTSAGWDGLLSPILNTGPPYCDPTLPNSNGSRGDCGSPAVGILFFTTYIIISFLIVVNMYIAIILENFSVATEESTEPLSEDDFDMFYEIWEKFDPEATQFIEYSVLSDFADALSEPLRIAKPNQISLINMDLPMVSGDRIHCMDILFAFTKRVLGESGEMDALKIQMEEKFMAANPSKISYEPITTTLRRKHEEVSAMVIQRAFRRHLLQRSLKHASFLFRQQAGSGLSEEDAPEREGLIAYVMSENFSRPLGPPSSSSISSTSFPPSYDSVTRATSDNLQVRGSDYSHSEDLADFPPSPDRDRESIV
Nav 1.7, sequence (Q15858 whole entry): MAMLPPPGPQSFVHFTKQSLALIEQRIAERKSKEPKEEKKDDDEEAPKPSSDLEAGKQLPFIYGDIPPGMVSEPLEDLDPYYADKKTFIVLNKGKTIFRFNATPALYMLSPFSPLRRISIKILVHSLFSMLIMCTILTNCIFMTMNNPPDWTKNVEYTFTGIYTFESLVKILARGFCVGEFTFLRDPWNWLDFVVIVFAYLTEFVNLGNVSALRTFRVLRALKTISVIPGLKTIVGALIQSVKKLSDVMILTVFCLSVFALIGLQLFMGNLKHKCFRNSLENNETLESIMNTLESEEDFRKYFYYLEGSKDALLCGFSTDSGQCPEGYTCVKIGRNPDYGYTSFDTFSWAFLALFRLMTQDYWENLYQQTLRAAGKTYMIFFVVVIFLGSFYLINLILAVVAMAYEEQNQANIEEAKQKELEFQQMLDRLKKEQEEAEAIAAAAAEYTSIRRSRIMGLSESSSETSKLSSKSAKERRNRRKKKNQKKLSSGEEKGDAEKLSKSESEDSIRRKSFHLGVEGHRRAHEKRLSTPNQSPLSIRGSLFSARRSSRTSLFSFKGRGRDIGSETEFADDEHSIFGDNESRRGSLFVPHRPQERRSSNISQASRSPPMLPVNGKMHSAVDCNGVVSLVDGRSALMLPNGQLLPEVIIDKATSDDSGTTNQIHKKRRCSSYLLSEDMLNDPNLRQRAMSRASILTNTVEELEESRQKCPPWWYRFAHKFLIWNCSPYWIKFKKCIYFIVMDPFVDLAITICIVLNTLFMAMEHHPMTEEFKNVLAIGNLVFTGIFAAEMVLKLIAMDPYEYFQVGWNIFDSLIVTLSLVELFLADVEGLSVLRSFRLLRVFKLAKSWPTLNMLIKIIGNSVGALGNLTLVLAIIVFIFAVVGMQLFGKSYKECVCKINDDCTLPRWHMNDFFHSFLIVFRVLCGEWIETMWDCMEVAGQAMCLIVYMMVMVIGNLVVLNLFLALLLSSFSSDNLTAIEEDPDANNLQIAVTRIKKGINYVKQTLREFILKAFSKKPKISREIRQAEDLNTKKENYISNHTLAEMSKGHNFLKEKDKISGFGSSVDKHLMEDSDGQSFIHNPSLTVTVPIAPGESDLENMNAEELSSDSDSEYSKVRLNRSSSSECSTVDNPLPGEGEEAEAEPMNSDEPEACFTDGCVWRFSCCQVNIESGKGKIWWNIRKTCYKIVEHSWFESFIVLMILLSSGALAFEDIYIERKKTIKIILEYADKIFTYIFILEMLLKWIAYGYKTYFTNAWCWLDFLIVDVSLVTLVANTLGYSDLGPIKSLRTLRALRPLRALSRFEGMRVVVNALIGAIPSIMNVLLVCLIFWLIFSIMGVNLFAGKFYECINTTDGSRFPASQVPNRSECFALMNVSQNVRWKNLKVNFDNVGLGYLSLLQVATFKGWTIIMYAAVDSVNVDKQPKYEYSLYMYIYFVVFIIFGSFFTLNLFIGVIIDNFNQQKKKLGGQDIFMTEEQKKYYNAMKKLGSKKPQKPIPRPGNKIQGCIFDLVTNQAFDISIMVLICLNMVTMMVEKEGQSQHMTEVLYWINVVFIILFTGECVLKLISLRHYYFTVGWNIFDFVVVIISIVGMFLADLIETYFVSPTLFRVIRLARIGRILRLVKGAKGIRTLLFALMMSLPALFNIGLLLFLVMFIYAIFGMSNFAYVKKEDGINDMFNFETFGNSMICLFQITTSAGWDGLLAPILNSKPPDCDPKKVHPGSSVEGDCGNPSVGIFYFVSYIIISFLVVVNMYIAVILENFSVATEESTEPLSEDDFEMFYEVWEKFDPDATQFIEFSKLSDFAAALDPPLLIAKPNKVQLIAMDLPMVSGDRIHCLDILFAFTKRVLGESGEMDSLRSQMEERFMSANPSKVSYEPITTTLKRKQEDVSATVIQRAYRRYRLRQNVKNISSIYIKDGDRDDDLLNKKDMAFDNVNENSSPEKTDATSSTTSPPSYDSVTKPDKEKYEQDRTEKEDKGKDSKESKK

With `COc1cc(-c2cccc(C(F)(F)F)c2)c(C#N)cc1-c1nccc2cc(S(=O)(=O)Nc3ccon3)ccc12` [Example 1, 1-(2-CYANO-5-METHOXY-3′-(TRIFLUOROMETHYL)-[1,1′-BIPHENYL]-4-YL)-N-(ISOXAZOL-3-YL)ISOQUINOLINE-6-SULFONAMIDE], the IC50 on Nav 1.5 (in-vitro Nav 1.5 PX data) is more than 10000 nM; on Nav 1.7 (in-vitro Nav 1.7 PX data) it was 54.7 nM.
Take `COc1cc(-c2cccc(F)c2)c(Cl)cc1-c1nccc2cc(S(=O)(=O)Nc3ncon3)ccc12` [Example 7, 1-(2-CHLORO-3′-FLUORO-5-METHOXY-[1,1′-BIPHENYL]-4-YL)-N-(1,2,4-OXADIAZOL-3-YL)ISOQUINOLINE-6-SULFONAMIDE 2,2,2-TRIFLUOROACETATE]: the values for the IC50 at Nav 1.5 (in-vitro PX data) and against Nav 1.7 were more than 10000 nM and 47.7 nM, respectively.
As for `COc1cc(-c2ccc(F)c(F)c2)c(C)cc1-c1nccc2cc(S(=O)(=O)Nc3nncs3)ccc12` [Example 171, 1-(3′,4′-difluoro-5-methoxy-2-methyl-4-biphenylyl)-N-1,3,4-thiadiazol-2-yl-6-isoquinolinesulfonamide], the IC50 at Nav 1.5 (in-vitro Nav 1.5 PX data) was more than 10000 nM; on Nav 1.7 (in-vitro Nav 1.7 PX data), 33.4 nM.
Turning to `COc1cc(-c2cccc(F)c2)c(Cl)cc1-c1ncnc2cc(S(=O)(=O)Nc3ncccn3)ccc12` [Example 243, 4-(2-chloro-3′-fluoro-5-methoxy-4-biphenylyl)-N-2-pyrimidinyl-7-quinazolinesulfonamide], the IC50 is more than 10000 nM on Nav 1.5 (in-vitro PX) and 80.3 nM against Nav 1.7 (in-vitro PX).
On to `COc1cc(-c2cccc(F)c2)ccc1-c1nccc2cc(S(=O)(=O)Nc3ncns3)c(F)cc12` [Example 44, 7-FLUORO-1-(3′-FLUORO-3-METHOXY-[1,1′-BIPHENYL]-4-YL)-N-(1,2,4-THIADIAZOL-5-YL)ISOQUINOLINE-6-SULFONAMIDE], for which the IC50 at Nav 1.5 (PatchXpress (PX), in vitro) is more than 10000 nM; on Nav 1.7, 48.8 nM.
For `COc1cc(-c2ccc(C)c(Cl)c2)c(C#N)cc1-c1nccc2cc(S(=O)(=O)Nc3ccncn3)ccc12` [Example 159, 1-(3′-chloro-2-cyano-5-methoxy-4′-methyl-4-biphenylyl)-N-4-pyrimidinyl-6-isoquinolinesulfonamide], the values for the IC50 at Nav 1.5 (in-vitro Nav 1.5 PX data) and at Nav 1.7 (in-vitro Nav 1.7 PX data) were more than 30000 nM and 38.7 nM, respectively.
Regarding `COc1cc(-c2ccc(Cl)c(C)c2)c(C#N)cc1-c1nccc2cc(S(=O)(=O)Nc3ccon3)ccc12` [Example 82, 1-(4′-chloro-2-cyano-5-methoxy-3′-methyl-4-biphenylyl)-N-3-isoxazolyl-6-isoquinolinesulfonamide], the IC50 at Nav 1.5 (PatchXpress (PX), in vitro) is more than 10000 nM; on Nav 1.7 (PatchXpress (PX), in vitro), 26.1 nM.
As for `COc1cc(NS(=O)(=O)c2ccc3c(-c4ccc(-c5cc(F)cc(F)c5)cc4OC)nccc3c2)ncn1` [Example 125, 1-(3′,5′-difluoro-3-methoxy-4-biphenylyl)-N-(6-methoxy-4-pyrimidinyl)-6-isoquinolinesulfonamide], the IC50 was more than 10000 nM at Nav 1.5 (in-vitro PX data) and 497 nM against Nav 1.7 (in-vitro PX data).
Regarding `COc1cc(-c2cc(F)cc(F)c2)ccc1-c1nccc2cc(S(=O)(=O)Nc3ncco3)ccc12` [Example 137, 1-(3′,5′-difluoro-3-methoxy-4-biphenylyl)-N-1,3-oxazol-2-yl-6-isoquinolinesulfonamide], the IC50 on Nav 1.5 (in-vitro PX data) is more than 10000 nM; on Nav 1.7 (in-vitro PX data), 360 nM.
Consider `COc1cc(-c2ccccc2C)c(C#N)cc1-c1nccc2cc(S(=O)(=O)Nc3ccncn3)ccc12` [Example 157, 1-(2-cyano-5-methoxy-2′-methyl-4-biphenylyl)-N-4-pyrimidinyl-6-isoquinolinesulfonamide], for which the IC50 was more than 10000 nM at Nav 1.5 (in-vitro Nav 1.5 PX data) and 206 nM on Nav 1.7 (in-vitro Nav 1.7 PX data).
Regarding `COc1cc(-c2ccc(F)c(Cl)c2)c(C#N)cc1-c1nccc2cc(S(=O)(=O)Nc3nncs3)ccc12` [Example 221, 1-(3′-chloro-2-cyano-4′-fluoro-5-methoxy-4-biphenylyl)-N-1,3,4-thiadiazol-2-yl-6-isoquinolinesulfonamide], the IC50 at Nav 1.5 (in-vitro PX) is more than 10000 nM.

Usually IC50 stands for the concentration at which inhibition is half-maximal.
